# Patent US20240246942A1, “KINASE INHIBITORS FOR THE TREATMENT OF NEURODEGENERATIVE DISEASES” (priority 2020, published 2024)
# How the values were obtained:
# Assay in all cases: biochemical
# [1] = target: T1, panel of 374 wild-type kinases (Homo sapiens, UniProt O96013); conditions: read-out: % Enzyme Activity (relative to DMSO controls), kinase PAK4
# T1 construct: purchased Reaction Biology Corporation
# [2] = target: T2, panel of 374 wild-type kinases (Homo sapiens, UniProt P22455); conditions: for remaining activity at 5 µM: read-out: % Enzyme Activity (relative to DMSO controls), FGFR4
# T2 construct: purchased Reaction Biology Corporation
# [3] = target: T3, panel of 374 wild-type kinases (Homo sapiens, UniProt P32298); conditions: read-out: % Enzyme Activity (relative to DMSO controls), GRK4
# T3 construct: purchased Reaction Biology Corporation
# [4] = target: T4, panel of 374 wild-type kinases (Homo sapiens, UniProt P34947); conditions: read-out: % Enzyme Activity (relative to DMSO controls), GRK5
# T4 construct: purchased Reaction Biology Corporation
# [5] = target: T5, panel of 374 wild-type kinases (Homo sapiens, UniProt P49137); conditions: read-out: % Enzyme Activity (relative to DMSO controls), MAPKAPK2
# T5 construct: purchased Reaction Biology Corporation
# [6] = target: T6, panel of 374 wild-type kinases (Homo sapiens, UniProt Q04771); conditions: read-out: % Enzyme Activity (relative to DMSO controls), ALK2/ACVR1
# T6 construct: purchased Reaction Biology Corporation
# T6 sequence (Q04771 21-509): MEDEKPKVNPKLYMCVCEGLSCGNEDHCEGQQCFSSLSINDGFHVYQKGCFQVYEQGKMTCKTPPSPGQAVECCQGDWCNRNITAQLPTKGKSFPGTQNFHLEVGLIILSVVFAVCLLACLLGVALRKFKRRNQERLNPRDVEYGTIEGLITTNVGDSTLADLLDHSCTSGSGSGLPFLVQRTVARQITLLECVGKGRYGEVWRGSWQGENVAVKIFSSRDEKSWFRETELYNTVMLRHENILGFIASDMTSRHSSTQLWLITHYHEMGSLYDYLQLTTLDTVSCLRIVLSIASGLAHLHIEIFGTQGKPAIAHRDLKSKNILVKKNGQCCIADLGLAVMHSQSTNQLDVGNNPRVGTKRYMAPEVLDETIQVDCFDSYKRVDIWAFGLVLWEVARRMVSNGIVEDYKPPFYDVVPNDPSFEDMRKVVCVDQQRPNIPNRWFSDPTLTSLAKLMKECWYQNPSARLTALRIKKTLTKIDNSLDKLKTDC
# [7] = target: T7, panel of 374 wild-type kinases (Homo sapiens, UniProt Q07002); conditions: read-out: % Enzyme Activity (relative to DMSO controls), CDK18/cyclin Y (PCTK3)
# T7 construct: purchased Reaction Biology Corporation
# [8] = target: T8, panel of 374 wild-type kinases (Homo sapiens, UniProt Q16539); conditions: P38a/MAPK14, read-out: % Enzyme Activity (relative to DMSO controls)
# T8 construct: purchased Reaction Biology Corporation
# [9] = target: T9, panel of 374 wild-type kinases (Homo sapiens, UniProt Q99986); conditions: read-out: % Enzyme Activity (relative to DMSO controls), kinase VRK1
# T9 construct: purchased Reaction Biology Corporation
# T9 sequence (Q99986 1-396): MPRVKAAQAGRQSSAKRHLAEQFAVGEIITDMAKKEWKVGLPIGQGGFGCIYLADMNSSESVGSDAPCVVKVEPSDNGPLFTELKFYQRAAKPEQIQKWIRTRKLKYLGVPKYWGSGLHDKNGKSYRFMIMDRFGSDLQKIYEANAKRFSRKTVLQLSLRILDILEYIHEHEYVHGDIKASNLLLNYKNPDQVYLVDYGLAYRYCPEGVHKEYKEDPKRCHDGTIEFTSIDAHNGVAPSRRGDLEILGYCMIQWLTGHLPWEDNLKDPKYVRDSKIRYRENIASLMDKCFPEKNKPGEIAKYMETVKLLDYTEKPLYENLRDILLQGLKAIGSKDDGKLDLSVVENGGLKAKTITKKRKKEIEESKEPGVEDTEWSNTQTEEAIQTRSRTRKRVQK
# [10] = target: T10, panel of 374 wild-type kinases (Homo sapiens, UniProt Q9BWU1); conditions: read-out: % Enzyme Activity (relative to DMSO controls), CDK19/cyclin C
# T10 construct: purchased Reaction Biology Corporation
# [11] = target: T11, panel of 374 wild-type kinases (Homo sapiens, UniProt Q9UPZ9); conditions: read-out: % Enzyme Activity (relative to DMSO controls), LCK2/ICK
# T11 construct: purchased Reaction Biology Corporation
# T11 sequence (Q9UPZ9 1-632): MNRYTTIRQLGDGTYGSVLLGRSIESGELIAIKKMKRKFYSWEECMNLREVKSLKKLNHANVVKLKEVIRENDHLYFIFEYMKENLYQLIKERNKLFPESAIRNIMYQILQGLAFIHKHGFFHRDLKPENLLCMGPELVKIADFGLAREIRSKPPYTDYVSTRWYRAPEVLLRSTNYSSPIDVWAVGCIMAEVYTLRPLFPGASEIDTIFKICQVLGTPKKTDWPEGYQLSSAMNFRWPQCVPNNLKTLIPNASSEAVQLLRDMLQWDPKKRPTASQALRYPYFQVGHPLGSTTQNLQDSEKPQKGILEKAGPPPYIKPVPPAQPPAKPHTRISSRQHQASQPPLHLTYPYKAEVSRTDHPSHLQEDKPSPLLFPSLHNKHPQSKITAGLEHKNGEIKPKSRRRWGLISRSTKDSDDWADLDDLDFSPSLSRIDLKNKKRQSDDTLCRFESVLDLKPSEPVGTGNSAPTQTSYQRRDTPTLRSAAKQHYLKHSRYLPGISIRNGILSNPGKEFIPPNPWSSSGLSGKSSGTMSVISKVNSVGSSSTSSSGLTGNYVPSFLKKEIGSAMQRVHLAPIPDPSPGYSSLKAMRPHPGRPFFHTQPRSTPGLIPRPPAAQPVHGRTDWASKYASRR
# T4 sequence (P34947 whole entry): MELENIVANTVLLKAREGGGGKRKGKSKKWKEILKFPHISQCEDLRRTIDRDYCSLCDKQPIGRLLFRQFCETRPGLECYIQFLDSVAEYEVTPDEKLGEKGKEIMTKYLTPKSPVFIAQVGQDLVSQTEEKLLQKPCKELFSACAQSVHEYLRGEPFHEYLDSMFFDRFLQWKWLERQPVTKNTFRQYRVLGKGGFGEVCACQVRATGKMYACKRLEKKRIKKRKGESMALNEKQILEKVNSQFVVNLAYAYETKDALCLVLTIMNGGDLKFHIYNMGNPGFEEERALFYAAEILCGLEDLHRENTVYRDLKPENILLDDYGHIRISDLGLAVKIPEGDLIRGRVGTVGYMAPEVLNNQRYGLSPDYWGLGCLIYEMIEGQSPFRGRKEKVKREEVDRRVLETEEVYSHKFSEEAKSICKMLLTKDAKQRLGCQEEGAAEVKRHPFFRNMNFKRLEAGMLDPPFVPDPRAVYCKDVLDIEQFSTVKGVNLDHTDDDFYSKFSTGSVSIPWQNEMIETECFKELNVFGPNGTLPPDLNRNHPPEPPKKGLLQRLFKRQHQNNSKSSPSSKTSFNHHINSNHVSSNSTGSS
# T5 sequence (P49137 whole entry): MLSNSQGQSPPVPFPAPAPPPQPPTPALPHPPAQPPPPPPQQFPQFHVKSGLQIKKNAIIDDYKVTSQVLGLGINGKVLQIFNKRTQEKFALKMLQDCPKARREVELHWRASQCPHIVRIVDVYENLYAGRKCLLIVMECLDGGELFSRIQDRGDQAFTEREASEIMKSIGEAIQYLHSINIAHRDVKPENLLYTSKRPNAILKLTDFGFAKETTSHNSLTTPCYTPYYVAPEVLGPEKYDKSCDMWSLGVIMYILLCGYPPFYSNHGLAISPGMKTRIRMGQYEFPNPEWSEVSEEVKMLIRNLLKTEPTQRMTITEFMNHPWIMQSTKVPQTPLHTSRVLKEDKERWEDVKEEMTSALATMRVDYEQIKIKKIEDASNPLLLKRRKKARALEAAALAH
# T1 sequence (O96013 whole entry): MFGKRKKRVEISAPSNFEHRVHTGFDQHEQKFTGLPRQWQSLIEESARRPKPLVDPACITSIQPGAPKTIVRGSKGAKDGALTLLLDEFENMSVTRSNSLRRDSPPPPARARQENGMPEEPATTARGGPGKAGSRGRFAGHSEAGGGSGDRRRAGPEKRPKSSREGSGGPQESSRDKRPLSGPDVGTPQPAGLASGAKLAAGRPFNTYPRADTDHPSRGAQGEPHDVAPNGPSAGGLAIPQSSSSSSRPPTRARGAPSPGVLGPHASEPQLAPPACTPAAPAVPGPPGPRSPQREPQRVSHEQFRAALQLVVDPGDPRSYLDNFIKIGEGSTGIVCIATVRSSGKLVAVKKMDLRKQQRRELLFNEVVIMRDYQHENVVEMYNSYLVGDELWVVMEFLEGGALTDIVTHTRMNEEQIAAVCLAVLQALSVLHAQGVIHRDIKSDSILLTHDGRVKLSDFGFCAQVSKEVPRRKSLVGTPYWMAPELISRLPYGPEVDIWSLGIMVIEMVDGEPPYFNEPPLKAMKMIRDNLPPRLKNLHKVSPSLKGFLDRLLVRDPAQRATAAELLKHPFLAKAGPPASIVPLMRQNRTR
# T2 sequence (P22455 22-802): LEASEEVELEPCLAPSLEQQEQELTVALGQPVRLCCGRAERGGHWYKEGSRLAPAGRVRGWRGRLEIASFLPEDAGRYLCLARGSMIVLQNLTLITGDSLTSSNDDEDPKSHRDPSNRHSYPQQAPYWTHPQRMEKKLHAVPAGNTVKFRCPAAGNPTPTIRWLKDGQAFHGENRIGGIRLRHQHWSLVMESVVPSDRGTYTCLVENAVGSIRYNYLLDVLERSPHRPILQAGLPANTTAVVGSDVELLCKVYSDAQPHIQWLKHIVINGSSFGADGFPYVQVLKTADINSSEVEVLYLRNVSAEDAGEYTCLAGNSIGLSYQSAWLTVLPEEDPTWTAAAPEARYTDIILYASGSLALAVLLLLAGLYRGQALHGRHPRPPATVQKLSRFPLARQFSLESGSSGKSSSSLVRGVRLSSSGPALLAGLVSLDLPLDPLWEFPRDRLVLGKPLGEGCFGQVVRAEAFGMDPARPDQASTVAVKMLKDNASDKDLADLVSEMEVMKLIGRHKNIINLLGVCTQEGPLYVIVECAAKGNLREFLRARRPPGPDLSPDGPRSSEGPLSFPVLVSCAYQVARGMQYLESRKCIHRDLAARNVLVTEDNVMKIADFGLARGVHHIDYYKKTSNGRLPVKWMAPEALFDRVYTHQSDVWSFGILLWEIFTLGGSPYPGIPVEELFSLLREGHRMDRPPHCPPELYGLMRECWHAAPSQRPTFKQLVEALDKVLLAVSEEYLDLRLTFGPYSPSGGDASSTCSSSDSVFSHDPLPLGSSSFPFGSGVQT
# T3 sequence (P32298 whole entry): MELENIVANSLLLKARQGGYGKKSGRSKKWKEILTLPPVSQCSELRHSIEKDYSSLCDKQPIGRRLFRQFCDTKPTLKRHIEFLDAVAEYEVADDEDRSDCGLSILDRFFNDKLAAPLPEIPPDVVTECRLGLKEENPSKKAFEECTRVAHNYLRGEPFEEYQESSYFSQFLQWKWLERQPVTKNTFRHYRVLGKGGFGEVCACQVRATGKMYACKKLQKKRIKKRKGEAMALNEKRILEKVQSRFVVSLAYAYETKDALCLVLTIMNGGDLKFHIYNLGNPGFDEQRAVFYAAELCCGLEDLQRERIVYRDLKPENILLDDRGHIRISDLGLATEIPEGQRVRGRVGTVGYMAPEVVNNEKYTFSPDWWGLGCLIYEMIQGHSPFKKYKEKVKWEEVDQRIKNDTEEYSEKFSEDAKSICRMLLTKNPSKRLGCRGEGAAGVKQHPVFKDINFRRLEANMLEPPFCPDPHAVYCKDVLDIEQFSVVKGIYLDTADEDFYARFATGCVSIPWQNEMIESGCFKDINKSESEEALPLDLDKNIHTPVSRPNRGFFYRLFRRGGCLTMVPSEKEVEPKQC
# T8 sequence (Q16539 whole entry): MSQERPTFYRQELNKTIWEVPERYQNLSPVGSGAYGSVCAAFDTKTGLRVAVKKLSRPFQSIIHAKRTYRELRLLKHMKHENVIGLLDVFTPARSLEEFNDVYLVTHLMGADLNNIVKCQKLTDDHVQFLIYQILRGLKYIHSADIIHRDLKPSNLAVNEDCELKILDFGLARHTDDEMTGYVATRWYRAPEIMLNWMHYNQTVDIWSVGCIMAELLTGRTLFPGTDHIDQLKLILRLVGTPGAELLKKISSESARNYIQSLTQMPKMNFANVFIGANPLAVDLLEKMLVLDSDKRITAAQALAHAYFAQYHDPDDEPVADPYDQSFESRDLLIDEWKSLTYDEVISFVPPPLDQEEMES
# T10 sequence (Q9BWU1 whole entry): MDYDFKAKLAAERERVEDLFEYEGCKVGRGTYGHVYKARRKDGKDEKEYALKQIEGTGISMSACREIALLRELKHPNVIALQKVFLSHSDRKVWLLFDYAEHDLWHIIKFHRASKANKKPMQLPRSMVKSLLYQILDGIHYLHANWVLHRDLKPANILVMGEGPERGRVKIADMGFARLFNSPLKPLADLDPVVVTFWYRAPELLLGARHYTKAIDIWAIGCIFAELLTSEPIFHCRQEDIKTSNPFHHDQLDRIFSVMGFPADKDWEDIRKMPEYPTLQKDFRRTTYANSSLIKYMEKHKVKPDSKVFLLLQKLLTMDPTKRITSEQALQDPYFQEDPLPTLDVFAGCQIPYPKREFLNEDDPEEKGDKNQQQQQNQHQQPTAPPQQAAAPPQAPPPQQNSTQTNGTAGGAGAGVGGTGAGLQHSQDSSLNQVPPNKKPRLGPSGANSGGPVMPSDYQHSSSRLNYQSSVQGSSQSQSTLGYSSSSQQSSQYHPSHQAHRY
# T7 sequence (Q07002 whole entry): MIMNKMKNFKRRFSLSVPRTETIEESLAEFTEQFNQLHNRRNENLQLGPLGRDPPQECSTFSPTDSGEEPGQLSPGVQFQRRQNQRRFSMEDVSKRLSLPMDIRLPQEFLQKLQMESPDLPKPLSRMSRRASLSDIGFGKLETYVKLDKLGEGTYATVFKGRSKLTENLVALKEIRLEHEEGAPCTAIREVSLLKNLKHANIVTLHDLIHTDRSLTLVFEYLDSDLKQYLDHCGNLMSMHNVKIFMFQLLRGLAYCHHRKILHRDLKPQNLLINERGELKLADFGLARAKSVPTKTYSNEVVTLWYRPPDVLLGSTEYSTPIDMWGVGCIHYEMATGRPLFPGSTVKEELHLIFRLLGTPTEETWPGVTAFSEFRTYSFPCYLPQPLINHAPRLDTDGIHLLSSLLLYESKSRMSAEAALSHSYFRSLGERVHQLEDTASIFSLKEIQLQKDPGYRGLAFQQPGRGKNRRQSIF
SMILES,remaining activity at 5 µM [1],remaining activity at 5 µM [2],remaining activity at 5 µM [3],remaining activity at 5 µM [4],remaining activity at 5 µM [5],remaining activity at 5 µM [6],remaining activity at 5 µM [7],remaining activity at 5 µM [8],remaining activity at 5 µM [9],remaining activity at 5 µM [10],remaining activity at 5 µM [11],also measured
"O=C(Nc1cnn(-c2csc(C(=O)NC3COC3)c2)c1)Nc1c(F)cccc1Cl [Compound 25, 4-(4-(3-(2-chloro-6-fluorophenyl)ureido)-1H-pyrazol-1-yl)-N-(oxetan-3-yl)thiophene-2-carboxamide]",107%,99.6%,93.6%,102%,99.8%,95.7%,91.9%,105%,91.9%,96.2%,101%,
"O=C(Nc1cnn(-c2csc(C(=O)NC3COC3)c2)c1)Nc1ccccc1Cl [Compound 17, 4-(4-(3-(2-chlorophenyl)ureido)-1H-pyrazol-1-yl)-N-(oxetan-3-yl)thiophene-2-carboxamide]",98.9%,88.2%,97%,98%,97.1%,105%,101%,142%,109%,105%,112%,
"Cc1sc(C(=O)NC2COC2)cc1-n1cc(NC(=O)Nc2c(F)cccc2Cl)cn1 [Compound 27, 4-(4-(3-(2-chloro-6-fluorophenyl)ureido)-1H-pyrazol-1-yl)-5-methyl-N-(oxetan-3-yl)thiophene-2-carboxamide]",,,,,,,,,,,,"remaining activity at 10 µM ([1]; 10 uM): 106%; remaining activity at 10 µM ([2]; FGFR4, 10 uM, read-out: % Enzyme Activity (relative to DMSO controls)): 96.8%; remaining activity at 10 µM ([3]; 10 uM): 113%; remaining activity at 10 µM ([4]; 10 uM): 113%; remaining activity at 10 µM ([5]; 10 uM): 93.6%; remaining activity at 10 µM ([6]; 10 uM): 108%; remaining activity at 10 µM ([7]; 10 uM): 119%; remaining activity at 10 µM ([8]; 10 uM): 93.2%; remaining activity at 10 µM ([9]; 10 uM): 109%; remaining activity at 10 µM ([10]; 10 uM): 98.1%; remaining activity at 10 µM ([11]; 10 uM): 100%"
